Data on three compounds can be found in ChEMBL document CHEMBL1201862, “PubChem BioAssay data set” (2004).

Experiment in all cases: NCI anticancer screen, dose series, 48 h
The test system of experiment [1] is CCRF-CEM.
Experiment [2] concerns HCT-15.
In experiment [3] the test system is HL-60.
Experiment [4] relates to HOP-92.
Experiment [5] relates to IGROV-1.
For experiment [6], the system named is K562.
Experiment [7] has as its system LOX IMVI.
The test system of experiment [8] is MDA-MB-435.
Experiment [9] concerns NCI-H23.
Experiment [10] relates to NCI-H460.
For experiment [11], the system named is NCI-H522.
For experiment [12], the system named is NCI/ADR-RES.
Experiment [13] relates to OVCAR-8.
Experiment [14] deals with PC-3.
Experiment [15] relates to RPMI-8226.
The subject of experiment [16] is SF-295.
The subject of experiment [17] is SK-MEL-2.
Experiment [18] deals with SNB-19.
For experiment [19], the system named is TK-10.
In experiment [20] the test system is UACC-257.

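Test compounds were applied to cells in 96-well plates for 48 hours at 5 doses. GI50 is the concentration that inhibits growth by half.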 Calls of active or inactive are those of the source. Cut-off read from the data, not from the text of the source: active = GI50 up to about 1.1 µM and inactive = higher.

For the compound `CCC1OC2C(CC=C(C)C)=C3OC(C)(O)C(C)(CC)C(OC(C)=O)C3=C3OC(=O)C=C1C32` (stereo not given), the GI50 in [1] is 36 µM (inactive); in experiment [2], 37 µM; in experiment [3] it was 75 µM (inactive); in experiment [4] it was 59.4 µM (inactive); in [5], 26.4 µM (inactive); in experiment [6] it was 32.8 µM (inactive). The GI50 in [7] was 21.3 µM (inactive); in experiment [8] it was 21.3 µM (inactive); in experiment [9] it was 27.7 µM (inactive); in [10], 30.9 µM (inactive); in experiment [11] it was 16.6 µM (inactive); in experiment [12] it was 29.6 µM (inactive). Further, the GI50 in experiment [13] is 35 µM (inactive); in experiment [14], 38.8 µM (inactive); in experiment [15], 22.1 µM (inactive); in experiment [16], 17.8 µM (inactive); in experiment [17], 19.9 µM (inactive); in experiment [18], 28.1 µM (inactive). For the same compound, the GI50 in experiment [19] is 34.4 µM (inactive); in [20], 22.2 µM (inactive).
On to `CN(C)c1ccc(C2CC(=O)CC(c3ccc(N(C)C)cc3)C23C(=O)NC(=O)NC3=O)cc1` (stereo not given), for which the GI50 was > 25 µM (inactive) in experiment [1]; above 25 µM in experiment [2]; > 25 µM (inactive) in [3]; 5.18 µM (inactive) in experiment [4]; > 25 µM (inactive) in [5]; 0.025 µM (active) in [6]. Further, the GI50 was > 25 µM (inactive) in experiment [7]; > 25 µM (inactive) in [8]; > 25 µM (inactive) in experiment [9]; > 25 µM (inactive) in experiment [10]; 17.6 µM (inactive) in experiment [11]; > 25 µM (inactive) in [12]. Besides, the GI50 in experiment [13] is 14.4 µM (inactive); in [14], > 25 µM (inactive); in experiment [15], > 25 µM (inactive); in experiment [16] it was 19.8 µM (inactive); in experiment [17], 16.7 µM (inactive); in [18], 9.14 µM (inactive). For the same compound, the GI50 in experiment [19] and in [20] was > 25 µM (inactive) in each case.
Regarding `O=C1C=C(Sc2ccccc2)c2nccc3c2c1nc1ccccc13`, the GI50 was 3.13 µM (inactive) in experiment [1]; 12.2 µM in experiment [2]; 2.08 µM (inactive) in [3]; 17.9 µM (inactive) in experiment [4]; 11.2 µM (inactive) in experiment [5]; 0.0234 µM (active) in [6]. Further, the GI50 was 11.8 µM (inactive) in experiment [7]; 16.9 µM (inactive) in experiment [8]; 23.6 µM (inactive) in experiment [9]; 23.6 µM (inactive) in [10]; 2.33 µM (inactive) in experiment [11]; 21.8 µM (inactive) in experiment [12]. The GI50 was 18.1 µM (inactive) in experiment [13]; 13.3 µM (inactive) in experiment [14]; 28.1 µM (inactive) in experiment [15]; 29.4 µM (inactive) in experiment [16]; 14.2 µM (inactive) in [17]; 37.2 µM (inactive) in [18]. Moreover, the values for the GI50 in [19] and in experiment [20] were 31.1 µM (inactive) and 15.5 µM (inactive), respectively.
